These are literature values, as cited in patent US20240424001A1, “LOCAL […] OF GROWTH AND REPAIR PROMOTING COMPOUNDS FOR TREATING, REDUCING AND/OR PREVENTING STRESS URINARY IN[…] FECAL INCONTINENCE” (STATERA PHARMA INC., priority 2021, published 2024).

For this data set the following is noted: approximate; testosterone = 100%; varies with species studied and assay methodology (ref. 14).
Turning to `C[C@]12CCC(=O)C=C1CC[C@@H]1[C@@H]2CC[C@]2(C)C(=O)CC[C@@H]12` [androstenedione], the “relative potency of androgens” value is ~10%. Consider `C[C@]12CC[C@H](O)CC1=CC[C@@H]1[C@@H]2CC[C@]2(C)C(=O)CC[C@@H]12` [dehydroepiandrosterone], for which the “relative potency of androgens” value was ~5%. With `C[C@]12CC[C@H]3[C@@H](CCC4=CC(=O)CC[C@@]43C)[C@@H]1CC[C@@H]2O` [testosterone], the “relative potency of androgens” value was ~100%.
